Counter-ions that a name gives are not always drawn.
Target: IRAK4 (Homo sapiens (Human), UniProt Q9NWZ3)
Assay: IRAK4 Kinase Assay
Format: biochemical
Conditions: IMAP fluorescence polarization, 0.5 nM GST tagged IRAK4, 100 μM ATP, 30 minutes at 25° C.; read-out: IRAK4 IC50

Sequence of IRAK4 (Q9NWZ3 whole entry): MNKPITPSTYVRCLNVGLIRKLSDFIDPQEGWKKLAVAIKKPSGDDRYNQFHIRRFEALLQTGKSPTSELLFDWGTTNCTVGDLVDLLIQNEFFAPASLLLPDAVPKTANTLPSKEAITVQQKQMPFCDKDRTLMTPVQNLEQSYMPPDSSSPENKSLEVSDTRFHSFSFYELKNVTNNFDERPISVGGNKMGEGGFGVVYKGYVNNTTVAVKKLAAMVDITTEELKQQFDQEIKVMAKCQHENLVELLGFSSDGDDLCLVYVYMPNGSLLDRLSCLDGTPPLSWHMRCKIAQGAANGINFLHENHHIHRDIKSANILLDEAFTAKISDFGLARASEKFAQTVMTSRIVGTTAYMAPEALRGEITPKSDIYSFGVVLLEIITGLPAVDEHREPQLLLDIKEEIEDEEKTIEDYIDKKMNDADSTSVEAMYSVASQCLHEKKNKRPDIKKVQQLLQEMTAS

SMILES	IC50
Cn1cc(NC(=O)c2cnn3ccc(N4CCNCCC45CC5)nc23)c(C(F)(F)F)n1 [Example 95, 5-(4,7-diazaspiro[2.6]non-4-yl)-N-[1-methyl-3-(trifluoromethyl)-1H-pyrazol-4-yl]pyrazolo[1,5-a]pyrimidine-3-carboxamide trifluoroacetate]	789 nM
Cn1cc(NC(=O)c2cnn3ccc(N4CC5CCC4CN5)nc23)c(C(F)F)n1 (stereo not shown) [Example 96, 5-(2,5-diazabicyclo[2.2.2]oct-2-yl)-N-[3-(difluoromethyl)-1-methyl-1H-pyrazol-4-yl]pyrazolo[1,5-a]pyrimidine-3-carboxamide trifluoroacetate]	2 nM
Cn1cc(NC(=O)c2cnn3ccc(N4CCCNCC45CC5)nc23)c(C(F)(F)F)n1 [Example 98, 5-(4,8-diazaspiro[2.6]non-4-yl)-N-[1-methyl-3-(trifluoromethyl)-1H-pyrazol-4-yl]pyrazolo[1,5-a]pyrimidine-3-carboxamide trifluoroacetate]	33 nM
Cn1cc(NC(=O)c2cnn3ccc(NC4CCCCNC4)nc23)c(C(F)F)n1 (stereo not shown) [Example 99, 5-(azepan-3-ylamino)-N-[3-(difluoromethyl)-1-methyl-1H-pyrazol-4-yl]pyrazolo[1,5-a]pyrimidine-3-carboxamide]	3 nM
O=C(Nc1ccccc1I)c1cnn2ccc(N3CCNCC4(CC4)C3)nc12 [Example 100, 5-(5,8-diazaspiro[2.6]non-5-yl)-N-(2-iodophenyl)pyrazolo[1,5-a]pyrimidine-3-carboxamide trifluoroacetate]	8080 nM
O=C(Nc1ccccc1I)c1cnn2ccc(N[C@@H]3CCCC[C@@H]3O)nc12 [Example 101, 5-{[(1R,2S)-2-hydroxycyclohexyl]amino}-N-(2-iodophenyl)pyrazolo[1,5-a]pyrimidine-3-carboxamide]	7650 nM
Cn1cc(NC(=O)c2cnn3ccc(N4C5CCC6NC5CCC64)nc23)c(C(F)(F)F)n1 [Example 102, 5-(2,7-diazatricyclo[4.4.0.0~3,8~]dec-2-yl)-N-[1-methyl-3-(trifluoromethyl)-1H-pyrazol-4-yl]pyrazolo[1,5-a]pyrimidine-3-carboxamide trifluoroacetate]	163 nM
O=C(Nc1ccccc1I)c1cnn2ccc(N3CC4CCC3CN4)nc12 (stereo not shown) [Example 103, 5-(2,5-diazabicyclo[2.2.2]oct-2-yl)-N-(2-iodophenyl)pyrazolo[1,5-a]pyrimidine-3-carboxamide trifluoroacetate]	6060 nM
N[C@H]1CCCC[C@H]1Nc1ccn2ncc(C(=O)Nc3ccccc3Cl)c2n1 [Example 104, 5-{[(1R,2)S-2-aminocyclohexyl]amino}-N-(2-chlorophenyl)pyrazolo[1,5-a]pyrimidine-3-carboxamide trifluoroacetate]	1 nM
O=C(Nc1ccccc1Cl)c1cnn2ccc(N3CCCNCC3)nc12 [Example 105, N-(2-chlorophenyl)-5-(1,4-diazepan-1-yl)pyrazolo[1,5-a]pyrimidine-3-carboxamide trifluoroacetate]	1270 nM
N[C@@H]1[C@H](Nc2ccn3ncc(C(=O)Nc4ccccc4Cl)c3n2)CCCC1(F)F [Example 106, 5-{[(1R,2R)-2-amino-3,3-difluorocyclohexyl]amino}-N-(2-chlorophenyl)pyrazolo[1,5-a]pyrimidine-3-carboxamide trifluoroacetate]	788 nM
O=C(Nc1ccccc1Cl)c1cnn2ccc(N3CC4CCC3CN4)nc12 (stereo not shown) [Example 107, N-(2-chlorophenyl)-5-(2,5-diazabicyclo[2.2.2]oct-2-yl)pyrazolo[1,5-a]pyrimidine-3-carboxamide trifluoroacetate]	521 nM
N[C@@H]1[C@H](Nc2ccn3ncc(C(=O)Nc4ccccc4Br)c3n2)CCCC1(F)F [Example 108, 5-{[(1R,2R)-2-amino-3,3-difluorocyclohexyl]amino}-N-(2-bromophenyl)pyrazolo[1,5-a]pyrimidine-3-carboxamide trifluoroacetate]	1890 nM
O=C(Nc1ccccc1Br)c1cnn2ccc(N3CCCNCC3)nc12 [Example 109, N-(2-bromophenyl)-5-(1,4-diazepan-1-yl)pyrazolo[1,5-a]pyrimidine-3-carboxamide trifluoroacetate]	3360 nM
N#Cc1sccc1NC(=O)c1cnn2ccc(N3CC4CCC3CN4)nc12 (stereo not shown) [Example 110, N-(2-cyanothiophen-3-yl)-5-(2,5-diazabicyclo[2.2.2]oct-2-yl)pyrazolo[1,5-a]pyrimidine-3-carboxamide trifluoroacetate]	193 nM
N#Cc1sccc1NC(=O)c1cnn2ccc(N3CCCNCC3)nc12 [Example 111, N-(2-cyanothiophen-3-yl)-5-(1,4-diazepan-1-yl)pyrazolo[1,5-a]pyrimidine-3-carboxamide trifluoroacetate]	464 nM
O=C(Nc1ccccc1Br)c1cnn2ccc(N3CC4CCC3CN4)nc12 (stereo not shown) [Example 112, N-(2-bromophenyl)-5-(2,5-diazabicyclo[2.2.2]oct-2-yl)pyrazolo[1,5-a]pyrimidine-3-carboxamide trifluoroacetate]	955 nM

SMILES	IC50
N[C@H]1CCCC[C@H]1Nc1ccn2ncc(C(=O)Nc3ccccc3Br)c2n1 [Example 113, 5-{[(1R,2S)-2-aminocyclohexyl]amino}-N-(2-bromophenyl)pyrazolo[1,5-a]pyrimidine-3-carboxamide trifluoroacetate]	2 nM
N[C@@H]1[C@H](Nc2ccn3ncc(C(=O)Nc4ccccc4C(F)(F)F)c3n2)CCCC1(F)F [Example 114, 5-{[(1R,2R)-2-amino-3,3-difluorocyclohexyl]amino}-N-[2-(trifluoromethyl)phenyl] pyrazolo[1,5-a]pyrimidine-3-carboxamide trifluoroacetate]	3820 nM
O=C(Nc1ccccc1C(F)(F)F)c1cnn2ccc(N3CC4CCC3CN4)nc12 (stereo not shown) [Example 115, 5-(2,5-diazabicyclo[2.2.2]oct-2-yl)-N-[2-(trifluoromethyl)phenyl] pyraozlo[1,5-a]pyrimidine-3-carboxamide trifluoroacetate]	5600 nM
N[C@H]1CCCC[C@H]1Nc1ccn2ncc(C(=O)Nc3ccsc3Cl)c2n1 [Example 116, 5-{[(1R,2S)-2-aminocyclohexyl]amino}-N-(2-chlorothiophen-3-yl)pyrazolo[1,5-a]pyrimidine-3-carboxamide trifluoroacetate]	1 nM
O=C(Nc1ccsc1Cl)c1cnn2ccc(N3CCCNCC3)nc12 [Example 117, N-(2-chlorothiophen-3-yl)-5-(1,4-diazepan-1-yl)pyrazolo[1,5-a]pyrimidine-3-carboxamide trifluoroacetate]	403 nM
N[C@@H]1[C@H](Nc2ccn3ncc(C(=O)Nc4ccsc4Cl)c3n2)CCCC1(F)F [Example 118, 5-{[(1R,2R)-2-amino-3,3-difluorocyclohexyl]amino}-N-(2-chlorothiophen-3-yl)pyrazolo[1,5-a]pyrimidine-3-carboxamide trifluoroacetate]	342 nM
N[C@H]1CCCC[C@H]1Nc1ccn2ncc(C(=O)Nc3cscc3C(F)F)c2n1 [Example 119, 5-{[(1R,2S)-2-aminocyclohexyl]amino}-N-[4-(difluoromethyl)thiophen-3-yl]pyrazolo[1,5-a]pyrimidine-3-carboxamide trifluoroacetate]	0.5 nM
O=C(Nc1cscc1C(F)F)c1cnn2ccc(N3CCCNCC3)nc12 [Example 120, 5-(1,4-diazepan-1-yl)-N-[4-(difluoromethyl)thiophen-3-yl]pyrazolo[1,5-a]pyrimidine-3-carboxamide trifluoroacetate]	84 nM
N[C@@H]1[C@H](Nc2ccn3ncc(C(=O)Nc4cscc4C(F)F)c3n2)CCCC1(F)F [Example 121, 5-{[(1R,2R)-2-amino-3,3-difluorocyclohexyl]amino}-N-[4-(difluoromethyl)thiophen-3-yl]pyrazolo[1,5-a]pyrimidine-3-carboxamide trifluoroacetate]	124 nM
N[C@@H]1[C@H](Nc2ccn3ncc(C(=O)Nc4cscc4Br)c3n2)CCCC1(F)F [Example 122, 5-{[(1R,2R)-2-amino-3,3-difluorocyclohexyl]amino}-N-(4-bromothiophen-3-yl)pyrazolo[1,5-a]pyrimidine-3-carboxamide trifluoroacetate]	1140 nM
O=C(Nc1cscc1Br)c1cnn2ccc(N3CCCNCC3)nc12 [Example 123, N-(4-bromothiophen-3-yl)-5-(1,4-diazepan-1-yl)pyrazolo[1,5-a]pyrimidine-3-carboxamide trifluoroacetate]	389 nM
O=C(Nc1cscc1Br)c1cnn2ccc(N3CC4CCC3CN4)nc12 (stereo not shown) [Example 124, N-(4-bromothiophen-3-yl)-5-(2,5-diazabicyclo[2.2.2]oct-2-yl)pyrazolo[1,5-a]pyrimidine-3-carboxamide trifluoroacetate]	245 nM
Cn1cc(NC(=O)c2cnn3ccc(N4CCCNCC4)nc23)c(C#N)n1 [Example 125, N-(3-cyano-1-methyl-1H-pyrazol-4-yl)-5-(1,4-diazepan-1-yl)pyrazolo[1,5-a]pyrimidine-3-carboxamide trifluoroacetate]	119 nM
Cn1cc(NC(=O)c2cnn3ccc(N[C@@H]4CCCC(F)(F)[C@@H]4N)nc23)c(C#N)n1 [Example 126, 5-{[(1R,2R)-2-amino-3,3-difluorocyclohexyl]amino}-N-(3-cyano-1-methyl-1H-pyrazol-4-yl)pyrazolo[1,5-a]pyrimidine-3-carboxamide trifluoroacetate]	70 nM
O=C(Nc1ccsc1Br)c1cnn2ccc(N3CCCNCC3)nc12 [Example 127, N-(2-bromothiophen-3-yl)-5-(1,4-diazepan-1-yl)pyrazolo[1,5-a]pyrimidine-3-carboxamide trifluoroacetate]	419 nM
N[C@@H]1[C@H](Nc2ccn3ncc(C(=O)Nc4ccsc4Br)c3n2)CCCC1(F)F [Example 128, 5-{[(1R,2R)-2-amino-3,3-difluorocyclohexyl]amino}-N-(2-bromothiophen-3-yl)pyrazolo[1,5-a]pyrimidine-3-carboxamide trifluoroacetate]	1240 nM
N[C@H]1CCCC[C@H]1Nc1ccn2ncc(C(=O)Nc3ccsc3Br)c2n1 [Example 129, 5-{[(1R,2S)-2-aminocyclohexyl]amino}-N-(2-bromothiophen-3-yl)pyrazolo[1,5-a]pyrimidine-3-carboxamide trifluoroacetate]	2 nM
